{
  "source": "patent US5552404A",
  "about": "“Opioid compounds and methods for using same” (Delta Pharmaceuticals, Inc., priority 1995, dated 1996)",
  "key": {"[1]": {"tested_on": "pressure nociception in rats", "assay": "Analgesic activity, tail pinch assay in rats (i.v.)", "format": "in vivo, rat (male Sprague-Dawley CD strain)", "settings": "iv, 5 min, rat tail pinch, 5 minutes after injection, read-out: Antinociceptive ED50 (half-maximum effective dose)", "description": "Analgesic activity was assessed by the tail pinch assay in rats (male Sprague-Dawley CD strain, weight approximately 300 g) after intravenous (i.v.) tail vein injection. A group of 6 to 8 animals was injected i.v. with compound in sterile 5% dextrose solution at a concentration of 1-5 mg/mL. Five minutes after injection, an artery clamp (Fisher Scientific Co., self-closing artery forcep, catalog #08-905) was placed on the tail about one inch from the tip of the tail to induce pressure nociception for a short duration (maximum of 20 seconds). The nociceptive response was judged by any sign of discomfort, such as running, squeaking, or turning around to bite the clamp. The dose-response curve was plotted for each compound."}, "mu opioid receptor": {"tested_on": "mu opioid receptor", "assay": "Agonism at mu opioid receptor"}, "delta opioid receptor": {"target": "delta opioid receptor (Mus musculus, UniProt P32300)", "sequence (P32300 whole entry)": "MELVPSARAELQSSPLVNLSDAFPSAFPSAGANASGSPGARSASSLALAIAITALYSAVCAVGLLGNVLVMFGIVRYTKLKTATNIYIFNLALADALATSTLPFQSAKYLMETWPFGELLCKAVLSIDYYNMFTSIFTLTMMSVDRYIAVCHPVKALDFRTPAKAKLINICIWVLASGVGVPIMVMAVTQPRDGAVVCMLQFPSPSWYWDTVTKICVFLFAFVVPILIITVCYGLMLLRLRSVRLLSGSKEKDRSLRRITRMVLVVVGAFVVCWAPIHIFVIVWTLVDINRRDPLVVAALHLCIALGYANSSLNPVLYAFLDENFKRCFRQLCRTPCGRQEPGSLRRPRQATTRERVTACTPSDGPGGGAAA", "assay": "Agonism at delta opioid receptor"}, "[2]": {"tested_on": "opioid receptors (mu/delta)", "assay": "Opioid receptor ligand selectivity / mixed agonist character"}, "rodent test subjects [3]": {"tested_on": "rodent test subjects", "assay": "Analgesia", "format": "in vivo", "settings": "for analgesia efficacy: in vivo; for analgesia compared with morphine: rodent test subjects"}, "rodent test subjects [4]": {"tested_on": "rodent test subjects", "assay": "Muscle rigidity in rodents", "settings": "vs morphine"}, "rodent test subjects [5]": {"tested_on": "rodent test subjects", "assay": "Respiratory depression in rodents", "settings": "vs morphine"}, "rodent test subjects [6]": {"tested_on": "rodent test subjects", "assay": "Proconvulsant activity in rodent tests"}},
  "data": [
    {"compound": "C=CCN1C[C@H](C)N([C@@H](c2cccc(O)c2)c2cccc(C(=O)N(CC)CC)c2)C[C@H]1C", "note": "[Example 1, (+)-3-((αR)-α-((2S,5R)-4-Allyl-2,5-dimethyl-1-piperazinyl)-3-hydroxybenzyl)-N,N-diethylbenzamide]", "values": [
      {"measurement": "ED50", "setting": "[1]", "result": 0.35, "unit": "mg/kg"},
      {"measurement": "agonism at mu opioid receptor", "setting": "mu opioid receptor", "result": "agonism"},
      {"measurement": "agonism at delta opioid receptor", "setting": "delta opioid receptor", "result": "agonism"},
      {"measurement": "opioid agonist character", "setting": "[2]", "result": "mixed mu/delta opioid agonists"},
      {"measurement": "opioid receptor ligand selectivity", "setting": "[2]", "result": "highly selective"},
      {"measurement": "analgesia efficacy", "setting": "rodent test subjects [3]", "result": "efficacious in mediating analgesia"},
      {"measurement": "analgesia compared with morphine", "setting": "rodent test subjects [3]", "result": "comparable to mu-analgesic morphine"},
      {"measurement": "muscle rigidity", "setting": "rodent test subjects [4]", "result": "much reduced extent"},
      {"measurement": "respiratory depression", "setting": "rodent test subjects [5]", "result": "much reduced extent"},
      {"measurement": "proconvulsant activity", "setting": "rodent test subjects [6]", "result": "free of proconvulsant activity"}
    ]},
    {"compound": "C=CCN1C[C@H](C)N([C@@H](c2cccc(O)c2)c2cccc(C(=O)N(C)c3ccccc3)c2)C[C@H]1C", "note": "[Example 9, (+)-3-((αR)-α-((2S,5R)-4-Allyl-2.5dimethyl-1-piperazinyl)-3-hydroxybenzyl)-N-methyl-N-phenylbenzamide]", "values": [
      {"measurement": "agonism at mu opioid receptor", "setting": "mu opioid receptor", "result": "agonism"},
      {"measurement": "agonism at delta opioid receptor", "setting": "delta opioid receptor", "result": "agonism"},
      {"measurement": "opioid agonist character", "setting": "[2]", "result": "mixed mu/delta opioid agonists"},
      {"measurement": "opioid receptor ligand selectivity", "setting": "[2]", "result": "highly selective"},
      {"measurement": "analgesia efficacy", "setting": "rodent test subjects [3]", "result": "efficacious in mediating analgesia"},
      {"measurement": "analgesia compared with morphine", "setting": "rodent test subjects [3]", "result": "comparable to mu-analgesic morphine"},
      {"measurement": "muscle rigidity", "setting": "rodent test subjects [4]", "result": "much reduced extent"},
      {"measurement": "respiratory depression", "setting": "rodent test subjects [5]", "result": "much reduced extent"},
      {"measurement": "proconvulsant activity", "setting": "rodent test subjects [6]", "result": "free of proconvulsant activity"}
    ]},
    {"compound": "C=CCN1C[C@H](C)N([C@@H](c2cccc(O)c2)c2cccc(C(=O)N(C)c3ccc(F)cc3)c2)C[C@H]1C", "note": "[Example 10, (+)-3-((αR)-α-((2S,5R)-4-Allyl-2,5-dimethyl-1-piperazinyl)-3-hydroxybenzyl)-N-(4-fluorophenyl)-N-methylbenzamide]", "values": [
      {"measurement": "agonism at mu opioid receptor", "setting": "mu opioid receptor", "result": "agonism"},
      {"measurement": "agonism at delta opioid receptor", "setting": "delta opioid receptor", "result": "agonism"},
      {"measurement": "opioid agonist character", "setting": "[2]", "result": "mixed mu/delta opioid agonists"},
      {"measurement": "opioid receptor ligand selectivity", "setting": "[2]", "result": "highly selective"},
      {"measurement": "analgesia efficacy", "setting": "rodent test subjects [3]", "result": "efficacious in mediating analgesia"},
      {"measurement": "analgesia compared with morphine", "setting": "rodent test subjects [3]", "result": "comparable to mu-analgesic morphine"},
      {"measurement": "muscle rigidity", "setting": "rodent test subjects [4]", "result": "much reduced extent"},
      {"measurement": "respiratory depression", "setting": "rodent test subjects [5]", "result": "much reduced extent"},
      {"measurement": "proconvulsant activity", "setting": "rodent test subjects [6]", "result": "free of proconvulsant activity"}
    ]},
    {"compound": "C=CCN1C[C@H](C)N([C@@H](c2cccc(O)c2)c2cccc(C(=O)N(CC)c3ccccc3)c2)C[C@H]1C", "note": "[Example 12, (+)-3-((αR)-α-((2S,5R)-4-Allyl-2,5-dimethyl-1-piperazinyl)-3-hydroxybenzyl)-N-ethyl-N-phenylbenzamide]", "values": [
      {"measurement": "agonism at mu opioid receptor", "setting": "mu opioid receptor", "result": "agonism"},
      {"measurement": "agonism at delta opioid receptor", "setting": "delta opioid receptor", "result": "agonism"},
      {"measurement": "opioid agonist character", "setting": "[2]", "result": "mixed mu/delta opioid agonists"},
      {"measurement": "opioid receptor ligand selectivity", "setting": "[2]", "result": "highly selective"},
      {"measurement": "analgesia efficacy", "setting": "rodent test subjects [3]", "result": "efficacious in mediating analgesia"},
      {"measurement": "analgesia compared with morphine", "setting": "rodent test subjects [3]", "result": "comparable to mu-analgesic morphine"},
      {"measurement": "muscle rigidity", "setting": "rodent test subjects [4]", "result": "much reduced extent"},
      {"measurement": "respiratory depression", "setting": "rodent test subjects [5]", "result": "much reduced extent"},
      {"measurement": "proconvulsant activity", "setting": "rodent test subjects [6]", "result": "free of proconvulsant activity"}
    ]},
    {"compound": "C=CCN1C[C@H](C)N([C@@H](c2cccc(O)c2)c2cccc(C(=O)N(C)c3cccc(F)c3)c2)C[C@H]1C", "note": "[Example 16, (+)-3-((αR)-α-((2S,5R)-4-Allyl-2,5-dimethyl-1-piperazinyl)-3-hydroxybenzyl)-N-(3-fluorophenyl)-N-methylbenzamide]", "values": [
      {"measurement": "ED50", "setting": "[1]", "result": 0.03, "unit": "mg/kg"},
      {"measurement": "agonism at mu opioid receptor", "setting": "mu opioid receptor", "result": "agonism"},
      {"measurement": "agonism at delta opioid receptor", "setting": "delta opioid receptor", "result": "agonism"},
      {"measurement": "opioid agonist character", "setting": "[2]", "result": "mixed mu/delta opioid agonists"},
      {"measurement": "opioid receptor ligand selectivity", "setting": "[2]", "result": "highly selective"},
      {"measurement": "analgesia efficacy", "setting": "rodent test subjects [3]", "result": "efficacious in mediating analgesia"},
      {"measurement": "analgesia compared with morphine", "setting": "rodent test subjects [3]", "result": "comparable to mu-analgesic morphine"},
      {"measurement": "muscle rigidity", "setting": "rodent test subjects [4]", "result": "much reduced extent"},
      {"measurement": "respiratory depression", "setting": "rodent test subjects [5]", "result": "much reduced extent"},
      {"measurement": "proconvulsant activity", "setting": "rodent test subjects [6]", "result": "free of proconvulsant activity"}
    ]},
    {"compound": "C=CCN1C[C@H](C)N([C@@H](c2cccc(O)c2)c2cccc(C(=O)N(CCC)c3ccccc3)c2)C[C@H]1C", "note": "[Example 27, (+)-3-((αR)-α-((2S,5R)-4-Allyl-2.5-dimethyl-1-piperazinyl)-3-hydroxybenzyl)-N-phenyl-N-propylbenzamide]", "values": [
      {"measurement": "ED50", "setting": "[1]", "result": 0.04, "unit": "mg/kg"},
      {"measurement": "agonism at mu opioid receptor", "setting": "mu opioid receptor", "result": "agonism"},
      {"measurement": "agonism at delta opioid receptor", "setting": "delta opioid receptor", "result": "agonism"},
      {"measurement": "opioid agonist character", "setting": "[2]", "result": "mixed mu/delta opioid agonists"},
      {"measurement": "opioid receptor ligand selectivity", "setting": "[2]", "result": "highly selective"},
      {"measurement": "analgesia efficacy", "setting": "rodent test subjects [3]", "result": "efficacious in mediating analgesia"},
      {"measurement": "analgesia compared with morphine", "setting": "rodent test subjects [3]", "result": "comparable to mu-analgesic morphine"},
      {"measurement": "muscle rigidity", "setting": "rodent test subjects [4]", "result": "much reduced extent"},
      {"measurement": "respiratory depression", "setting": "rodent test subjects [5]", "result": "much reduced extent"},
      {"measurement": "proconvulsant activity", "setting": "rodent test subjects [6]", "result": "free of proconvulsant activity"}
    ]},
    {"compound": "C=CCN1C[C@H](C)N([C@@H](c2cccc(O)c2)c2cccc(C(=O)N(CC)c3ccc(F)cc3)c2)C[C@H]1C", "note": "[Example 28, (+)-3-((αR)-α-((2S,5R)-4-Allyl-2,5-dimethyl-1-piperazinyl)-3-hydroxybenzyl)-N-ethyl-N-(4-fluorophenyl)benzamide]", "values": [
      {"measurement": "ED50", "setting": "[1]", "result": 0.03, "unit": "mg/kg"},
      {"measurement": "agonism at mu opioid receptor", "setting": "mu opioid receptor", "result": "agonism"},
      {"measurement": "agonism at delta opioid receptor", "setting": "delta opioid receptor", "result": "agonism"},
      {"measurement": "opioid agonist character", "setting": "[2]", "result": "mixed mu/delta opioid agonists"},
      {"measurement": "opioid receptor ligand selectivity", "setting": "[2]", "result": "highly selective"},
      {"measurement": "analgesia efficacy", "setting": "rodent test subjects [3]", "result": "efficacious in mediating analgesia"},
      {"measurement": "analgesia compared with morphine", "setting": "rodent test subjects [3]", "result": "comparable to mu-analgesic morphine"},
      {"measurement": "muscle rigidity", "setting": "rodent test subjects [4]", "result": "much reduced extent"},
      {"measurement": "respiratory depression", "setting": "rodent test subjects [5]", "result": "much reduced extent"},
      {"measurement": "proconvulsant activity", "setting": "rodent test subjects [6]", "result": "free of proconvulsant activity"}
    ]},
    {"compound": "C=CCN1C[C@H](C)N([C@@H](c2cccc(O)c2)c2cccc(C(=O)N(C)c3ccc(OC)cc3)c2)C[C@H]1C", "note": "[Example 30, (+)-3-((αR)-α-((2S,5R)-4-Allyl-2.5-dimethyl-1-piperazinyl)-3-hydroxybenzyl)-N-(4-methoxyphenyl)-N-methylbenzamide]", "values": [
      {"measurement": "agonism at mu opioid receptor", "setting": "mu opioid receptor", "result": "agonism"},
      {"measurement": "agonism at delta opioid receptor", "setting": "delta opioid receptor", "result": "agonism"},
      {"measurement": "opioid agonist character", "setting": "[2]", "result": "mixed mu/delta opioid agonists"},
      {"measurement": "opioid receptor ligand selectivity", "setting": "[2]", "result": "highly selective"},
      {"measurement": "analgesia efficacy", "setting": "rodent test subjects [3]", "result": "efficacious in mediating analgesia"},
      {"measurement": "analgesia compared with morphine", "setting": "rodent test subjects [3]", "result": "comparable to mu-analgesic morphine"},
      {"measurement": "muscle rigidity", "setting": "rodent test subjects [4]", "result": "much reduced extent"},
      {"measurement": "respiratory depression", "setting": "rodent test subjects [5]", "result": "much reduced extent"},
      {"measurement": "proconvulsant activity", "setting": "rodent test subjects [6]", "result": "free of proconvulsant activity"}
    ]},
    {"compound": "C=CCN1C[C@H](C)N([C@@H](c2cccc(O)c2)c2cccc(C(=O)N(C)c3ccccc3F)c2)C[C@H]1C", "note": "[Example 31, (+)-3-((αR)-α-((2S,5R)-4-Allyl-2,5-dimethyl-1-piperazinyl)-3-hydroxybenzyl)-N-(2-fluorophenyl)-N-methylbenzamide]", "values": [
      {"measurement": "agonism at mu opioid receptor", "setting": "mu opioid receptor", "result": "agonism"},
      {"measurement": "agonism at delta opioid receptor", "setting": "delta opioid receptor", "result": "agonism"},
      {"measurement": "opioid agonist character", "setting": "[2]", "result": "mixed mu/delta opioid agonists"},
      {"measurement": "opioid receptor ligand selectivity", "setting": "[2]", "result": "highly selective"},
      {"measurement": "analgesia efficacy", "setting": "rodent test subjects [3]", "result": "efficacious in mediating analgesia"},
      {"measurement": "analgesia compared with morphine", "setting": "rodent test subjects [3]", "result": "comparable to mu-analgesic morphine"},
      {"measurement": "muscle rigidity", "setting": "rodent test subjects [4]", "result": "much reduced extent"},
      {"measurement": "respiratory depression", "setting": "rodent test subjects [5]", "result": "much reduced extent"},
      {"measurement": "proconvulsant activity", "setting": "rodent test subjects [6]", "result": "free of proconvulsant activity"}
    ]}
  ]
}
